The text below walks through data of patent US20250215010A1, “DIAZABICYCLOOCTANE DERIVATIVES USEFUL AS MATRIX METALLOPROTEINASE INHIBITORS” (VASA THERAPEUTICS SPOLKA Z OGRANICZONA ODPOWIEDZIALNOSCIA, priority 2022, published 2025).

Common to all, as to type: biochemical
Experiment [1] deals with T1, MMP1 (Homo sapiens, UniProt P03956).
T1 sequence (P03956 100-269 limits assumed): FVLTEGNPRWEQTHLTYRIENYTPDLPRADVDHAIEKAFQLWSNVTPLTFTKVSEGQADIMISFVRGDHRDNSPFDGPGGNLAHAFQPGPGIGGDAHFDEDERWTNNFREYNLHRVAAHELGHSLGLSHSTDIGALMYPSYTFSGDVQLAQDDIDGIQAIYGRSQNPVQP
The experiment in a line: MMP-1 colorimetric inhibition assay (Enzo kit BML-AK404). To be noted: thiopeptide substrate, absorbance 415 nm; read-out: MMP 1 IC50 class. The protocol: (§1) The inhibitory activities of the compounds of the invention were assessed in 96-well microplate format using MMP1, MMP2, MMP9 and MMP13 colorimetric assay kits and TACE fluorometric assay kit from Enzo Life Sciences, Inc. The inhibitory effect of the compounds of the invention on ADAM10 activity were evaluated in 96-well microplate format using fluorometric assay from AnaSpec, Inc.
The MMP-1 Colorimetric Drug Discovery Kit (catalog #BML-AK404) is a complete assay system designed to screen inhibitors of matrix metalloproteinase-1 using a thiopeptide as a chromogenic substrate (Ac-PLG-[2-mercapto-4-methylpentanoyl]-LG-OC2H5). The MMP cleavage site peptide bond is replaced by a thioester bond in the thiopeptide. Hydrolysis of this bond by an MMP produces a sulfhydryl group, which reacts with DTNB [5,5′-dithiobis(2-nitrobenzoic acid), Ellman's reagent] to form 2-nitro-5-thiobenzoic acid, that can be detected spectrophotometrically.
(§2) The inhibitory activities of the compounds of the invention against MMP1, MMP2, MMP9 and MMP13 were tested according to the manufacturer's assay protocols and the absorbance at 415 nm was monitored using the Tecan Infinite® 200 Pro F Nano^+ microplate reader.
(§3) The normalized values were analyzed using GraphPadPrism 9 for Windows (GraphPad Software, San Diego, CA, USA) software by plotting inhibition curves and determining the IC50 values (in nM).

Experiment [2] deals with T2, MMP2 (Homo sapiens, UniProt P08253).
T2 sequence (P08253 110-660): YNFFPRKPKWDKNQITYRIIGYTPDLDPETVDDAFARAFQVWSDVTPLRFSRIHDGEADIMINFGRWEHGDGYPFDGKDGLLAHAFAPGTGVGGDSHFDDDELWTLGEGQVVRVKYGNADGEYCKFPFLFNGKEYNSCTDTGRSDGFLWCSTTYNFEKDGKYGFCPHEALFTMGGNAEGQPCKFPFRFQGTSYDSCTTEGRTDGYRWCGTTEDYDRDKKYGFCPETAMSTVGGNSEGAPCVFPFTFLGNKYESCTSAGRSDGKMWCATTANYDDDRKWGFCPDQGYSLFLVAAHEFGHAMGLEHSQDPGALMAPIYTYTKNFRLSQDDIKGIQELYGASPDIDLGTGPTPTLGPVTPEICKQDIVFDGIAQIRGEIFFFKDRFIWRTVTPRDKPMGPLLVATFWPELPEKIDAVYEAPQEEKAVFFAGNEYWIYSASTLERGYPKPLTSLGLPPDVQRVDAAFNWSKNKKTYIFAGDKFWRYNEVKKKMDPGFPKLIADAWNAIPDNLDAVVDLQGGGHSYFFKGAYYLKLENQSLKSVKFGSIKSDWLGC
Kind of experiment: MMP-2 colorimetric inhibition assay (Enzo kit BML-AK408). As to conditions: thiopeptide substrate, absorbance 415 nm; read-out: MMP 2 IC50 class. As to the method: as §1
The MMP-2 Colorimetric Drug Discovery Kit (catalog #BML-AK408) is a complete assay system designed to screen MMP-2 inhibitors using a thiopeptide as a chromogenic substrate (Ac-PLG-[2-mercapto-4-methylpentanoyl]-LG-OC2H5). The MMP cleavage site peptide bond is replaced by a thioester bond in the thiopeptide. Hydrolysis of this bond by an MMP produces a sulfhydryl group, which reacts with DTNB [5,5′-dithiobis(2-nitrobenzoic acid), Ellman's reagent] to form 2-nitro-5-thiobenzoic acid, that can be detected spectrophotometrically.
as §2, §3

The target of experiment [3] is MMP9 (Homo sapiens, UniProt P14780). Kind of experiment: MMP-9 colorimetric inhibition assay (Enzo kit BML-AK410). To be noted: thiopeptide substrate, absorbance 415 nm; read-out: MMP 9 IC50 class. As to the method: as §1
The MMP-9 Colorimetric Drug Discovery Kit (catalog #BML-AK410) is a complete assay system designed to screen inhibitors of matrix metalloproteinase-9 using a thiopeptide as a chromogenic substrate (Ac-PLG-[2-mercapto-4-methylpentanoyl]-LG-OC2H5). The MMP cleavage site peptide bond is replaced by a thioester bond in the thiopeptide. Hydrolysis of this bond by an MMP produces a sulfhydryl group, which reacts with DTNB [5,5′-dithiobis(2-nitrobenzoic acid), Ellman's reagent] to form 2-nitro-5-thiobenzoic acid, that can be detected spectrophotometrically.
as §2, §3

For experiment [4], the target named is T3, MMP13 (Homo sapiens, UniProt P45452).
T3 construct: purchased Enzo Life Sciences, Inc. BML-AK412
The experiment in a line: MMP-13 colorimetric inhibition assay (Enzo kit BML-AK412). As to conditions: thiopeptide substrate, absorbance 415 nm; read-out: MMP 13 IC50 class. As to the method:
as §1
The MMP-13 Colorimetric Drug Discovery Kit (catalog #BML-AK412) is a complete assay system designed to screen inhibitors of matrix metalloproteinase-13 using a thiopeptide as a chromogenic substrate (Ac-PLG-[2-mercapto-4-methylpentanoyl]-LG-OC2H5). The MMP cleavage site peptide bond is replaced by a thioester bond in the thiopeptide. Hydrolysis of this bond by an MMP produces a sulfhydryl group, which reacts with DTNB [5,5′-dithiobis(2-nitrobenzoic acid), Ellman's reagent] to form 2-nitro-5-thiobenzoic acid, that can be detected spectrophotometrically.
as §2, §3

Experiment [5] deals with ADAM17 (TACE) (Homo sapiens, UniProt P78536). The experiment in a line: TACE fluorometric inhibition assay (Enzo kit BML-AK310). To be noted: quenched fluorogenic peptide, ex/em 320/420 nm; read-out: TACE IC50 class. As to the method: as §1
The TACE Fluorometric Drug Discovery Kit (catalog #BML-AK310) is a complete assay system designed to screen ADAM17 (TACE) inhibitors using a quenched fluorogenic peptide: Mca-PLAQAV-Dpa-RSSSR—NH2. Mca fluorescence is quenched by the Dpa group until cleavage by proteases separates the two moieties leading to an increase in Mca fluorescence.
The inhibitory activity of the compounds of the invention against TACE was tested according to the manufacturer's assay protocol and the fluorescence was monitored at excitation/emission wavelengths=320 nm/420 nm using Tecan Infinite® 200 Pro F Nano^+ microplate reader.
as §3

Sequence of MMP9 (P14780 94-707): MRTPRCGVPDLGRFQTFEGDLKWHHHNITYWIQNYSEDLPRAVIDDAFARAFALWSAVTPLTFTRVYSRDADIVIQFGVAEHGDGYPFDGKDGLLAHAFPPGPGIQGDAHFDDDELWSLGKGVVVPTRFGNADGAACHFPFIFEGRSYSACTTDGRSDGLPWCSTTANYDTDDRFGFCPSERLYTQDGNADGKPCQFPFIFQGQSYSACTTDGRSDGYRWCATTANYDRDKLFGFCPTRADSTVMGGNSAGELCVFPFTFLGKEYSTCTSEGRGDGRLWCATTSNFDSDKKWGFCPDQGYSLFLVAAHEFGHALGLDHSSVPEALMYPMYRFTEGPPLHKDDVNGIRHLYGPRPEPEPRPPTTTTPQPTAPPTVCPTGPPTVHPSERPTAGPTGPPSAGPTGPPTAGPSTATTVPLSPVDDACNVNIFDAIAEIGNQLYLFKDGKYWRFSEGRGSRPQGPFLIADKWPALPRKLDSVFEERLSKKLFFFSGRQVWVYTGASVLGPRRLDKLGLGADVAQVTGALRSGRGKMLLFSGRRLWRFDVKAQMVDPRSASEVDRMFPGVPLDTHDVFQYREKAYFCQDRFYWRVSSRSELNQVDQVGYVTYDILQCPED
Sequence of ADAM17 (TACE) (P78536 215-477 limits assumed): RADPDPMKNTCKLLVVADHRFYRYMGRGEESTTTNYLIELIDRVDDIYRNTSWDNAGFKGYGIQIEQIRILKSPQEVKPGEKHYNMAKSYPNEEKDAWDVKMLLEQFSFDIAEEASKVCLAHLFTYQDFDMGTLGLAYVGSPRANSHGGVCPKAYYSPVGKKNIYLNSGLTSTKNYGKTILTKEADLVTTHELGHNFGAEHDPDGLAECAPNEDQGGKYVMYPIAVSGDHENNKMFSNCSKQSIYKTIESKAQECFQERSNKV

A word on the IC50: it is the concentration that gives 50% inhibition. Regarding `COCCOC(=O)N1[C@@H]2CC[C@H]1[C@H](C(=O)NO)N(S(=O)(=O)c1ccc(Oc3cncc(Cl)c3)nc1)C2` [Example 15, (1S,2R,5R)-2-methoxyethyl 3-((6-((5-chloropyridin-3-yl)oxy)pyridin-3-yl)-sulfonyl)-2-(hydroxycarbamoyl)-3,8-diazabicyclo[3.2.1]-octane-8-carboxylate], the IC50 in experiment [1] lay within 1000 to 10000 nM; in experiment [2] it was 50 to 1000 nM; in experiment [3], 50 to 1000 nM; in experiment [4], 50 to 1000 nM; in experiment [5], 50 to 1000 nM.
In the case of `CC(=O)N1[C@@H]2CC[C@H]1[C@H](C(=O)NO)N(S(=O)(=O)N1CCC(Oc3ccnc(C(F)(F)F)c3)CC1)C2` [Example 64, (1S,2R,5R)-8-acetyl-N-hydroxy-3-((4-((2-(trifluoromethyl)-pyridin-4-yl)oxy)-piperidin-1-yl)-sulfonyl)-3,8-diazabicyclo[3.2.1]-octane-2-carboxamide], the IC50 was in the range of 1000 to 10000 nM in experiment [1]; 50 to 1000 nM in experiment [2]; 50 to 1000 nM in experiment [3]; 50 to 1000 nM in experiment [4]; 1000 to 10000 nM in experiment [5].
For the compound `CC(C)Oc1ccc(Oc2ccc(S(=O)(=O)N3C[C@H]4CC[C@@H]([C@@H]3C(=O)NO)N4C(=O)C(C)C)cn2)cc1` [Example 60, (1S,2R,5R)-N-hydroxy-8-isobutyry1-3-((6-(4-isopropoxy-phenoxy)pyridin-3-yl)sulfonyl)-3,8-diazabicyclo-[3.2.1]octane-2-carboxamide], the IC50 is 1000 to 10000 nM in experiment [1]; less than 50 nM in experiment [2]; less than 50 nM in experiment [3]; less than 50 nM in experiment [4]; greater than 10000 nM in experiment [5].
On to `COCCOC(=O)N1[C@@H]2CC[C@H]1[C@H](C(=O)NO)N(S(=O)(=O)c1ccc(Oc3nc4ccc(F)cc4o3)c(F)c1)C2` [Example 82, 2-methoxyethyl (1S,2R,5R)-3-((3-fluoro-4-((6-fluoro-benzo[d]oxazol-2-yl)oxy)phenyl)-sulfonyl)-2-(hydroxycarbamoyl)-3,8-diazabicyclo-[3.2.1]octane-8-carboxylate], for which the half-maximal inhibitory concentration (IC50) was greater than 10000 nM in experiment [1]; 1000 to 10000 nM in experiment [2]; 1000 to 10000 nM in experiment [3]; 1000 to 10000 nM in experiment [4]; 50 to 1000 nM in experiment [5].
Regarding `COCCOC(=O)N1[C@@H]2CC[C@H]1[C@H](C(=O)NO)N(S(=O)(=O)c1ccc(Oc3nc4ccccc4o3)c(F)c1)C2` [Example 79, 2-methoxyethyl (1S,2R,5R)-3-((4-(benzo[d]oxazol-2-yloxy)-3-fluorophenyl)sulfonyl)-2-(hydroxycarbamoyl)-3,8-diazabicyclo[3.2.1]octane-8-carboxylate], the IC50 in experiment [1] was greater than 10000 nM; in experiment [2], 50 to 1000 nM; in experiment [3] it was 1000 to 10000 nM; in experiment [4], 50 to 1000 nM; in experiment [5], 1000 to 10000 nM.
On to `CC(C)Oc1ccc(Oc2ccc(S(=O)(=O)N3C[C@H]4CC[C@@H]([C@@H]3C(=O)NO)N4C(=O)C(C)(C)C)cn2)cc1` [Example 61, (1S,2R,5R)-N-hydroxy-3-((6-(4-isopropoxyphenoxy)-pyridin-3-yl)-sulfonyl)-8-pivaloyl-3,8-diazabicyclo-[3.2.1]octane-2-carboxamide], for which the IC50 in experiment [1] was 1000 to 10000 nM; in experiment [2] it was less than 50 nM; in experiment [3], 50 to 1000 nM; in experiment [4] it was less than 50 nM; in experiment [5], greater than 10000 nM.
Regarding `COCCOC(=O)N1[C@@H]2CC[C@H]1[C@H](C(=O)NO)N(S(=O)(=O)c1ccc(Oc3nc4cc(F)ccc4o3)c(F)c1)C2` [Example 83, 2-methoxyethyl (1S,2R,5R)-3-((3-fluoro-4-((5-fluoro-benzo[d]oxazol-2-yl)oxy)phenyl)sulfonyl)-2-(hydroxy-carbamoyl)-3,8-diazabicyclo[3.2.1]-octane-8-carboxylate], the IC50 in experiment [2], in experiment [3] and in experiment [4] was 1000 to 10000 nM throughout.
As to `COCCOC(=O)N1[C@@H]2CC[C@H]1[C@H](C(=O)NO)N(S(=O)(=O)c1ccc(-c3cccc(F)c3)nc1)C2` [Example 4, 2-methoxyethyl (1S,2R,5R)-3-((6-(3-fluorophenyl)pyridin-3-yl)sulfonyl)-2-(hydroxycarbamoyl)-3,8-diaza-bicyclo[3.2.1]octane-8-carboxylate], the figures for the IC50 in experiment [2], in experiment [3] and in experiment [4] were 50 to 1000 nM, 1000 to 10000 nM and 50 to 1000 nM, respectively.
In the case of `COCCOC(=O)N1[C@@H]2CC[C@H]1[C@H](C(=O)NO)N(S(=O)(=O)c1cc(F)c(Oc3ccc(Cl)cc3)c(F)c1)C2` [Example 2, (1S,2R,5R)-2-methoxyethyl 3-((4-(4-chlorophenoxy)-3,5-difluoro-phenyl)sulfonyl)-2-(hydroxycarbamoyl)-3,8-diazabicyclo-[3.2.1]octane-8-carboxylate], the IC50 in experiment [2], in experiment [3] and in experiment [4] was 50 to 1000 nM each time.
As to `COCCOC(=O)N1[C@@H]2CC[C@H]1[C@H](C(=O)NO)N(S(=O)(=O)c1ccc(Oc3nc4ccccc4o3)nc1)C2` [Example 84, 2-methoxyethyl (1S,2R,5R)-3-((6-(benzo[d]oxazol-2-yloxy)pyridin-3-yl)sulfonyl)-2-(hydroxycarbamoyl)-3,8-diazabicyclo[3.2.1]octane-8-carboxylate], the IC50 in experiment [2], in experiment [3] and in experiment [4] was greater than 10000 nM each time.
For `COCCOC(=O)N1[C@H]2CC[C@@H]1[C@@H](C(=O)NO)N(S(=O)(=O)c1cc(F)c(Oc3ccc(Cl)cc3)c(F)c1)C2` [Example 3, 2-methoxyethyl (1R,2S,5S)-3-((4-(4-chlorophenoxy)-3,5-difluorophenyl)-sulfonyl)-2-(hydroxycarbamoyl)-3,8-diaza-bicyclo[3.2.1]octane-8-carboxylate], the IC50 in experiment [2], in experiment [3] and in experiment [4] was 1000 to 10000 nM throughout.
